Data reported in PMC6100386, “Preparation of Novel Homodimers Derived from Cytotoxic Isoquinolinequinones. A Twin Drug Approach” (Molecules : A Journal of Synthetic Chemistry and Natural …, 2018).
Read-outs that look alike come from different tables or passages of the source.

Tests used:
[1] = test system: B16-F10 mouse melanoma cells; assay: Cell growth inhibition assay (CyQuant direct cell proliferation), melanoma; type: cell-based; details: murine metastatic melanoma cell line, 72 h drug exposure, average of six independent determinations, read-out: IC50 ± SEM, B16-F10
Method: (§1) The prepared homodimers 11–15 were evaluated for their in vitro cytotoxic activity using a conventional fluorescence assay (Cyquant direct cell proliferation assays), against primary mouse embryo fibroblast cell line MEF and two cancer cells lines: […] human breast adenocarcinoma and B16-F10 murine metastatic melanoma cells, in 72 h drug exposure assays. Monoamination products 6–10 were included in these preliminary assays. […] Etoposide and taxol, used clinically as anticancer agents, were taken as positive controls.
(§2) The cell lines used in this work included MDA-MB-231 human breast adenocarcinoma cells, B16-F10 mouse melanoma cells and MEF primary mouse embryonic fibroblasts. Cells were grown in DMEM high glucose medium (Mediatech, Manassas, VA, USA) supplemented with 10% (MDA-MB-231, and B16-F10) or 15% (MEF) heat-inactivated fetal bovine serum (HyClone laboratories, South Logan, UT, USA), 100 IU/mL penicillin and 100 μg/mL streptomycin, kept at 37 °C in a 5% CO2 humidified atmosphere. For the experiments, a total of 5.000 cells/well were seeded on a flat-bottomed 96-well plate with 200 μL final volume. Six hours after seeding, the cells were incubated with the medium containing the compounds at concentrations ranging from 0 up to 100 μM dissolved in DMSO (0.1% final concentration) for 72 h. The concentrations used to calculate the IC50 values were 100.0, 30.0, 10.0, 3.0, 1.0, 0.3, 0.1, 0.01 and 0.0 μM. Untreated cells (medium containing 0.1% DMSO) were used as controls. At the end of the incubation, cell viability was measured using CyQuant® direct cell proliferation assay kits (Life Technologies, Carlsbad, CA, USA) in accordance with the manufacturer’s instructions. Briefly, 100 μL of culture medium containing the compounds under evaluation was removed from each well and replaced by 2X detection reagent. The cells were incubated for 1 h and fluorescence emission was measured at 535 nm with excitation at 480 nm in a microplate reader (Infinite 200 PRO, Tecan, Männedorf, Switzerland). At least four independent experiments were performed for each concentration. Each result was transformed to percentage of controls and the IC50 values were obtained graphically from the dose–response curves. The IC50 value was obtained by adjusting the dose–response curve to a sigmoidal curve (variable slope) generated using GraphPad Prisma 6.0 software (La Jolla, CA, USA).

[2] = test system: MDA-MB-231 human breast adenocarcinoma cells; assay: Cell growth inhibition assay (CyQuant direct cell proliferation), breast adenocarcinoma; type: cell-based; details: human breast adenocarcinoma cell line, 72 h drug exposure, average of six independent determinations, read-out: IC50 ± SEM, MDA-MB 231
Method: as §1, §2

[3] = test system: MEF primary mouse embryonic fibroblasts; assay: Cell growth inhibition assay (CyQuant direct cell proliferation), normal fibroblasts; type: cell-based; details: normal mouse embryo fibroblast cell line; 72 h drug exposure; average of six independent determinations; read-out: IC50 ± SEM, MEF
Method: as §1, §2

[4] = test system: MDA-MB-231 and B16-F10 tumor cells (versus MEF fibroblasts); assay: Cell growth inhibition assay, mean over the two tumor cell lines and selectivity versus fibroblasts; type: cell-based; details: for SI (mean selectivity index): IC50 values for fibroblast cells / IC50 values for tumor cells (mean IC50); for IC50: mean of the IC50 values of the two tumor cell lines MDA-MB 231 and B16-F10, 72 h
Method: as §1, §2

Compound	IC50 [1] [µM]	IC50 [2] [µM]	IC50 ([1]; Mus musculus, B16-F10) [µM]	IC50 ([2]; MDA-MB-231) [µM]	melting point [°C]	IC50 [3] [µM]	SI (mean selectivity index) [4]	IC50 [4] [µM]	IC50 ([4]; Fibroblast) [µM]
4-Acetyl-6-((4-(4-aminobenzyl)phenyl)amino)-3-methylisoquinoline-5,8-dione [Compound 10]	2.17 ± 0.37	2.75 ± 0.42				5.14 ± 0.69	2.09	2.46	
CC(=O)c1c(C)nc(C)c2c1C(=O)C=C(Nc1ccc(Cc3ccc(N)cc3)cc1)C2=O [Compound 7]	7.14 ± 0.95	19.5 ± 1.46				15.4 ± 1.97	1.15	13.3	
COC(=O)c1c(C)ncc2c1C(=O)C=C(Nc1ccc(Cc3ccc(N)cc3)cc1)C2=O [Compound 8]			3.31 ± 0.47	1.45 ± 0.31	83 to 84	5.54 ± 0.82	2.33		2.38
CC(=O)c1c(C)ncc2c1C(=O)C=C(Nc1ccc(Cc3ccc(N)cc3)cc1)C2=O [Compound 9]	0.76 ± 0.21	1.59 ± 0.37				2.79 ± 0.44	2.36	1.18	
COC(=O)c1c(C)nc(C)c2c1C(=O)C=C(Nc1ccc(Cc3ccc(NC4=CC(=O)c5c(C(=O)OC)c(C)nc(C)c5C4=O)cc3)cc1)C2=O [Compound 11]			> 100	66.9 ± 6.13	199 to 200	> 100	0.30		
CC(=O)c1c(C)nc(C)c2c1C(=O)C=C(Nc1ccc(Cc3ccc(NC4=CC(=O)c5c(C(C)=O)c(C)nc(C)c5C4=O)cc3)cc1)C2=O [Compound 12, 7,7′-(4,4′-Methylenebis(4,1-phenylene)bis(azanediyl))bis(4-acetyl-1,3-dimethylisoquinoline-5,8-dione)]	48.6 ± 4.42	55.6 ± 5.95				71.6 ± 6.39	1.37	52.1	
CC(=O)c1c(C)ncc2c1C(=O)C=C(Nc1ccc(Cc3ccc(NC4=CC(=O)c5c(cnc(C)c5C(C)=O)C4=O)cc3)cc1)C2=O [Compound 14, 7,7′-(4,4′-Methylenebis(4,1-phenylene)bis(azanediyl))bis(4-acetyl-3-methylisoquinoline-5,8-dione)]	5.83 ± 0.73	7.98 ± 1.43				32.8 ± 3.38	4.74	6.91	
COC(=O)c1c(C)ncc2c1C(=O)C=C(Nc1ccc(Cc3ccc(NC4=CC(=O)c5cnc(C)c(C(=O)OC)c5C4=O)cc3)cc1)C2=O [Compound 15, Methyl-7-(4-(4-(4-(methoxycarbonyl)-3-methyl-5,8-dioxo-5,8-dihydroisoquinolin-6-ylamino)benzyl)phenylamino)-3-methyl-5,8-dioxo-5,8-dihydroisoquinoline-4-carboxylate]			0.45 ± 0.08	0.29 ± 0.05	191 to 192	2.58 ± 0.33	6.97		0.37

More lines, main results first:

IC50 [1] [µM]	IC50 [2] [µM]	IC50 ([1]; Mus musculus, B16-F10) [µM]	IC50 ([2]; MDA-MB-231) [µM]	melting point [°C]	Compound	IC50 [3] [µM]	SI (mean selectivity index) [4]	IC50 [4] [µM]	IC50 ([4]; Fibroblast) [µM]
		6.16 ± 0.88	2.46 ± 0.39	149 to 150	COC(=O)c1c(C)nc(C)c2c1C(=O)C=C(Nc1ccc(Cc3ccc(N)cc3)cc1)C2=O [Compound 6]	8.87 ± 0.88	2.06		4.31
		66.3 ± 5.61	24.8 ± 4.78		COC(=O)c1c(C)ncc2c1C(=O)C=C(Nc1ccc(Cc3ccc(NC4=CC(=O)c5c(cnc(C)c5C(=O)OC)C4=O)cc3)cc1)C2=O [Compound 13, Dimethyl-7,7′-(4,4′-methylenebis(4,1-phenylene)bis(azanediyl))bis(3-methyl-5,8-dioxo-5,8-dihydroisoquinoline-4-carboxylate)]	79.8 ± 9.27	1.75		45.6
		2 ± 0.44	5.34 ± 0.12		COc1cc([C@@H]2c3cc4c(cc3[C@@H](O[C@@H]3O[C@@H]5CO[C@@H](C)O[C@H]5[C@H](O)[C@H]3O)[C@H]3COC(=O)[C@H]23)OCO4)cc(OC)c1O [Etoposide, reference compound]	1.18 ± 0.4	0.32		3.67
		0.38 ± 0.06	0.32 ± 0.07		CC(=O)O[C@H]1C(=O)[C@@]2(C)[C@H]([C@H](OC(=O)c3ccccc3)[C@]3(O)C[C@H](OC(=O)[C@H](O)[C@@H](NC(=O)c4ccccc4)c4ccccc4)C(C)=C1C3(C)C)[C@]1(OC(C)=O)CO[C@@H]1C[C@@H]2O [Taxol, reference compound]	0.32 ± 0.05	0.91		0.35
